In patent publication US20240300940A1, “Phenothiazinyl Compounds and Uses” (Prosetta Biosciences, Inc., priority 2023, published 2024):

Tests used:
E. faecalis ATCC29212 [1] = assay: MIC assay, serial dilution; conditions: Enterococcus faecalis
[2] = tested on: different species of gram-positive bacteria; assay: MIC assay, summary over gram-positive species; conditions: exception E. faecalis
E. faecium ATCC27270 [3] = assay: MIC assay, serial dilution; conditions: Enterococcus faecium
Hennes-20 cells = assay: Hennes-20 oncology screen; assay type: cell-based; conditions: 72 h, alamar Blue
In short: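 Cells seeded at 500 and 15,000 per well in minimum essential medium, dosed with a compound titration after 24 h, then incubated 72 h at 37 °C. Alamar Blue added and incubated a further 72 h, read at 530/590. Lower signal only at low density indicates proliferation arrest; lower signal at both densities indicates toxicity.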

S. pneumoniae ATCC49619 [4] = assay: Minimum bactericidal concentration assay; assay type: cell-based; conditions: Streptococcus pneumoniae
Protocol: (§1) The study was done based on CLSI document M26-A Wayne, PA: Clinical and laboratory standard institute: 1999.
(§2) After determination of a MIC in a broth system under standard conditions, measured aliquots of growth media may be sub-cultured quantitatively to solid media to assess bactericidal activity. To calculate the extent of killing at each antibiotic concentration, plates are incubated under appropriate conditions, colony counts are performed and results are compared to that of the growth control well. The accepted definition of the minimum bactericidal concentration (MBC) is the lowest concentration of test compound at which a 99.9% (3 log) or greater reduction in growth compared with the initial inoculum is observed. […] (Table 4).

S. epidermidis ATCC14990 = assay: Minimum bactericidal concentration assay; assay type: cell-based; conditions: Staphylococcus epidermidis
Protocol: as §1, §2

S. pyogens ATCC49399 = assay: Minimum bactericidal concentration assay; assay type: cell-based; conditions: Streptococcus
Protocol: as §1, §2

E. faecium ATCC27270 [5] = assay: Minimum bactericidal concentration assay; assay type: cell-based; conditions: Enterococcus faecium
Protocol: as §1, §2

S. aureus ATCC25923 [6] = assay: Minimum bactericidal concentration assay; assay type: cell-based; conditions: Staphylococcus aureus
Protocol: as §1, §2

E. faecalis ATCC29212 [7] = assay: Minimum bactericidal concentration assay; assay type: cell-based; conditions: Enterococcus faecalis
Protocol: as §1, §2

S. pneumoniae ATCC49619 [8] = assay: MIC assay, serial dilution; conditions: Streptococcus pneumoniae
S. aureus ATCC25923 [9] = assay: MIC assay, serial dilution; conditions: Staphylococcus aureus
Sensitive strain = assay: Cross resistance test (MIC); conditions: read-out: MIC, Sensitive strain
MRSA ATCC 43300 = assay: Serum effect on antibacterial activity (MIC); assay type: cell-based, S. aureus; conditions: Staphylococcus aureus
[10] = Mouse plasma pharmacokinetics
Protocol: For the mouse plasma pharmacokinetic analyses, the study was conducted in BALB/c mice with single dose of IV-3 mg/kg. Blood samples were collected at 10 time points/dose (0.25, 0.5, 1, 2, 4, 6, 8, 10, 12, and 24 h post dose). At each time point, blood samples were collected from 4 mice from the retro-orbital plexus. A terminal blood collection method was employed for collecting blood samples for each time point in all PK studies. […] The PK parameters were estimated by noncompartmental analysis.
Dose—mg/kg, AUC—ng. h/mL, Cmax-ng/mL, Tmax-h, Kel—1/h, Half-life-h, MRT-h, Clearance—mL/min/kg, Vd-L/kg, Bioavailability-%. IV—Intravenous, IP— Intraperitoneal, PO—Per oral.

[11] = BALB/c, mouse, in vivo, iv, 3 mg/kg

CC1(C)C2CN(c3ccc4nc5ccc(N6CC7C(C6)C7(C)C)cc5[s+]c4c3)CC21 (stereo not shown) [Compound 1, 3,7-Di(6,6-dimethyl-3-azabicyclo[3.1.0]hexan-N-yl)phenothiazinium iodide]
MIC (E. faecalis ATCC29212 [1]): 2 µg/mL
MIC range [2]: 0.25 to 0.5 µg/mL
MIC (E. faecium ATCC27270 [3]): 0.5 µg/mL
EC50 (Hennes-20 cells): 500 nM
MBC (S. pneumoniae ATCC49619 [4]): 0.5 µg/mL
MBC (S. epidermidis ATCC14990): 1 µg/mL
MBC (S. pyogens ATCC49399): 0.5 µg/mL
MBC (E. faecium ATCC27270 [5]): 0.5 µg/mL
MBC (S. aureus ATCC25923 [6]): 0.25 µg/mL
MBC (E. faecalis ATCC29212 [7]): 2 µg/mL
MIC (S. pneumoniae ATCC49619 [8]): 0.25 µg/mL
MIC (S. aureus ATCC25923 [9]): 0.25 µg/mL
MIC (Sensitive strain): 0.25 µg/mL
MIC (MRSA ATCC 43300; MRSA ATCC 43300, 20% serum): 1 µg/mL
MIC (MRSA ATCC 43300; MRSA ATCC 43300, 40% serum): 2 µg/mL
MIC (MRSA ATCC 43300; MRSA ATCC 43300, No serum): 0.25 µg/mL
AUC(0-inf) [10, 11]: 2980 ng·h/mL
AUC(0-t) [10, 11]: 2710 ng·h/mL
Cmax [10, 11]: 5620 ng/mL
MRT [10, 11]: 7 h
Tmax [10, 11]: 4.8 min
Vd [10, 11]: 7 L/kg
clearance [10, 11]: 17 mL/min/kg
half-life [10, 11]: 10 h
Kel ([10]; mice, IV 3 mg/kg single dose): 0.07 h⁻¹
